From ChEMBL document CHEMBL3885861, “Open TG-GATES”

Species on record: Rattus norvegicus
Experiment: Open TG-GATES - Regimen: Single
Assay type: toxicity, organism-based, Sprague-Dawley
Parameters: regimen Single, gender Male, age 6 weeks
Conditions: in vivo, po, 0 mg/kg, route gavage, dose level Control; for APTT / Bas / Eos / Fbg / Hb / Ht / Lym / MCH / MCHC / MCV / Mono / Neu / PT / Plat / RBC / Ret / WBC: tissue Blood; for KIDNEY_L / KIDNEY_R / KIDNEY_TOTAL: tissue Kidney; for LIVER: tissue Liver; for A/G / ALP / ALT / AST / BUN / CRE / Ca / Cl / DBIL / GLC / IP / K / LDH / Na / PL / RALB / TBIL / TC / TG / TP / gamma-GTP: tissue Plasma

## CCO [ALCOHOL]
3 h
  TERMINAL_BW: 207 g
  APTT: 17.7 s
  Bas: 0%
  Eos: 1%
  Fbg: 200.4 mg/dL
  Hb: 13.3 g/dL
  Ht: 39.9%
  Lym: 76%
  MCH: 21.5 pg
  MCHC: 33.4%
  MCV: 64.2 fL
  Mono: 7.6%
  Neu: 15.2%
  PT: 12 s
  Plat: 110.3 x10_4/uL
  RBC: 622.4 x10_4/ul
  Ret: 8.9%
  WBC: 99.3 x10_2/uL
  KIDNEY_L: 0.9 g
  KIDNEY_R: 1 g
  KIDNEY_TOTAL: 1.9 g
  LIVER: 9.6 g
  A/G: 2.7
  ALP: 951 IU/L
  ALT: 39.2 IU/L
  AST: 69 IU/L
  BUN: 13 mg/dL
  CRE: 0.5 mg/dL
  Ca: 10.8 mg/dL
  Cl: 103.8 meq/L
  DBIL: 0.02 mg/dL
  GLC: 192 mg/dL
  IP: 8.7 mg/dL
  K: 4.5 meq/L
  LDH: 103.2 IU/L
  Na: 140 meq/L
  PL: 145.8 mg/dL
  RALB: 3.9 g/dL
  TBIL: 0.4 mg/dL
  TC: 83.8 mg/dL
  TG: 59.6 mg/dL
  TP: 5.3 g/dL
  gamma-GTP: 1.4 IU/L
6 h
  TERMINAL_BW: 207 g
  APTT: 18.8 s
  Bas: 0%
  Eos: 1%
  Fbg: 212 mg/dL
  Hb: 13.9 g/dL
  Ht: 41.4%
  Lym: 74%
  MCH: 21.8 pg
  MCHC: 33.5%
  MCV: 64.9 fL
  Mono: 9.2%
  Neu: 15.8%
  PT: 11.8 s
  Plat: 116.1 x10_4/uL
  RBC: 638.8 x10_4/ul
  Ret: 10.4%
  WBC: 90.5 x10_2/uL
  KIDNEY_L: 0.9 g
  KIDNEY_R: 1 g
  KIDNEY_TOTAL: 1.9 g
  LIVER: 9.6 g
  A/G: 2.4
  ALP: 727.6 IU/L
  ALT: 32.4 IU/L
  AST: 58.2 IU/L
  BUN: 11 mg/dL
  CRE: 0.5 mg/dL
  Ca: 10.4 mg/dL
  Cl: 105.2 meq/L
  DBIL: 0.06 mg/dL
  GLC: 184.8 mg/dL
  IP: 9.6 mg/dL
  K: 4.8 meq/L
  LDH: 62 IU/L
  Na: 139.6 meq/L
  PL: 141.8 mg/dL
  RALB: 3.8 g/dL
  TBIL: 0.4 mg/dL
  TC: 80.8 mg/dL
  TG: 55 mg/dL
  TP: 5.4 g/dL
  gamma-GTP: 2 IU/L
9 h
  TERMINAL_BW: 201.1 g
  APTT: 20.7 s
  Bas: 0%
  Eos: 1%
  Fbg: 199.2 mg/dL
  Hb: 13.5 g/dL
  Ht: 40.1%
  Lym: 66%
  MCH: 21.8 pg
  MCHC: 33.7%
  MCV: 64.6 fL
  Mono: 9.2%
  Neu: 23.6%
  PT: 12.2 s
  Plat: 112.2 x10_4/uL
  RBC: 620.8 x10_4/ul
  Ret: 11.7%
  WBC: 75.4 x10_2/uL
  KIDNEY_L: 0.9 g
  KIDNEY_R: 0.9 g
  KIDNEY_TOTAL: 1.9 g
  LIVER: 8.3 g
  A/G: 2.8
  ALP: 861 IU/L
  ALT: 30.8 IU/L
  AST: 66.8 IU/L
  BUN: 13.4 mg/dL
  CRE: 0.5 mg/dL
  Ca: 10.7 mg/dL
  Cl: 106.4 meq/L
  DBIL: 0.038 mg/dL
  GLC: 196.2 mg/dL
  IP: 9.8 mg/dL
  K: 5.1 meq/L
  LDH: 74.6 IU/L
  Na: 137.4 meq/L
  PL: 133.4 mg/dL
  RALB: 3.9 g/dL
  TBIL: 0.4 mg/dL
  TC: 74 mg/dL
  TG: 46.6 mg/dL
  TP: 5.3 g/dL
  gamma-GTP: 2 IU/L
24 h
  TERMINAL_BW: 219 g
  APTT: 17.7 s
  Bas: 0%
  Eos: 1.4%
  Fbg: 207.4 mg/dL
  Hb: 13.5 g/dL
  Ht: 39.6%
  Lym: 74.8%
  MCH: 22.3 pg
  MCHC: 34%
  MCV: 65.6 fL
  Mono: 9.8%
  Neu: 14.6%
  PT: 11.6 s
  Plat: 115.5 x10_4/uL
  RBC: 604 x10_4/ul
  Ret: 10%
  WBC: 101.6 x10_2/uL
  KIDNEY_L: 1 g
  KIDNEY_R: 1 g
  KIDNEY_TOTAL: 2 g
  LIVER: 10.4 g
  A/G: 2.6
  ALP: 862 IU/L
  ALT: 39.8 IU/L
  AST: 64.8 IU/L
  BUN: 17.2 mg/dL
  CRE: 0.5 mg/dL
  Ca: 10.9 mg/dL
  Cl: 103.4 meq/L
  DBIL: 0.006 mg/dL
  GLC: 194.4 mg/dL
  IP: 8.5 mg/dL
  K: 4.7 meq/L
  LDH: 87.8 IU/L
  Na: 139 meq/L
  PL: 150.2 mg/dL
  RALB: 4 g/dL
  TBIL: 0.3 mg/dL
  TC: 83 mg/dL
  TG: 100.8 mg/dL
  TP: 5.5 g/dL
  gamma-GTP: 1.4 IU/L
